Results taken from US20170281758A1, “CAL[…] DRUG […] AN A[…] TO A SUGAR MOIETY ON CALICHEAMICIN” (Sorrento Therapeutics, Inc., priority 2016, published 2017).

Legend:
[1] = system: Seven breast cancer cell lines with various level of Her2 expression; assay: Overall assessment of anti-HER2 ADCs over the cell panel (efficacy, toxicity, therapeutic window); type: cell-based
Experimental: (§1) The antibody used was an anti-HER2 IgG class of antibody. Seven breast cancer cell lines with various level of Her2 expression as indicated with plus or minus signs in the table below were plated in 96 well plate. The ADCs as listed under Drug-Linker ID were serial diluted and added onto cells for treatment for 5 days. At the end of the study, cell proliferation was measured by Promega's CellTitreGlo.

[2] = system: BT474 (Her2+++); details: anti-HER2 IgG ADC, treatment 5 days, 50% cell growth inhibition
Experimental: as §1

[3] = system: SKBR-3 (Her2+++); details: anti-HER2 IgG ADC, treatment 5 days, 50% cell growth inhibition
Experimental: as §1

[4] = system: MCF-7 (Her2+/−); details: anti-HER2 IgG ADC, treatment 5 days, 50% cell growth inhibition
Experimental: as §1

[5] = system: JIMT-1 (Her2+++); details: anti-HER2 IgG ADC, treatment 5 days, 50% cell growth inhibition
Experimental: as §1

[6] = system: HCC1954 (Her2+++); details: anti-HER2 IgG ADC, treatment 5 days, 50% cell growth inhibition
Experimental: as §1

[7] = system: MDA468 (Her2−); details: anti-HER2 IgG ADC; MDA468 (Her2−) control cell line; treatment 5 days; 50% cell growth inhibition
Experimental: as §1

[8] = system: MDA-453 (Her2++); details: anti-HER2 IgG ADC, treatment 5 days, 50% cell growth inhibition
Experimental: as §1

Structure (SMILES) | Assessment of efficacy and toxicity / therapeutic window [1] | EC50 [2] [nM] | EC50 [3] [nM] | EC50 [4] [nM] | EC50 [5] [nM] | EC50 [6] [nM] | EC50 [7] [nM] | EC50 [8] [nM]
CCN(C(=O)CNC(=O)OCc1ccc(NC(=O)[C@H](CC(N)=O)NC(=O)[C@H](C)NC(=O)[C@H](C)NC(=O)CCC(=O)N2CCC(C(=O)O)CC2)cc1)C1COC(OC2C(O[C@H]3C#C/C=C\C#C[C@]4(O)CC(=O)C(NC(=O)OC)=C3/C4=C\CSSC(C)(C)CC(=O)NCC(O)CO)OC(C)C(NOC3CC(O)C(SC(=O)c4c(C)c(I)c(OC5OC(C)C(O)C(OC)C5O)c(OC)c4OC)C(C)O3)C2O)CC1OC (stereo partly drawn) [Compound 15] | successful candidates with high efficacy and good therapeutic window | 1.46 | 0.17 | > 100 | 0.17 | 0.064 | – | –
CCN(C(=O)CNC(=O)OCc1ccc(NC(=O)[C@H](C)NC(=O)[C@@H](NC(=O)CCCn2nnc(CBr)c2CBr)C(C)C)cc1)C1COC(OC2C(O[C@H]3C#C/C=C\C#C[C@]4(O)CC(=O)C(NC(=O)OC)=C3/C4=C\CSSC(C)(C)CCC(=O)NCCOCCOCCOCCO)OC(C)C(NOC3CC(O)C(SC(=O)c4c(C)c(I)c(OC5OC(C)C(O)C(OC)C5O)c(OC)c4OC)C(C)O3)C2O)CC1OC (stereo partly drawn) [Compound 30] | successful candidates with high efficacy and good therapeutic window | 1.41 | 0.065 | 0.5 | 0.09 | – | 24 | 0.05
CCN(C(=O)CNC(=O)OCc1ccc(NC(=O)[C@H](C)NC(=O)[C@@H](NC(=O)CCCC(=O)O)C(C)C)cc1)C1COC(OC2C(O[C@H]3C#C/C=C\C#C[C@]4(O)CC(=O)C(NC(=O)OC)=C3/C4=C\CSSC(C)CCC(=O)NCC(O)CO)OC(C)C(NOC3CC(O)C(SC(=O)c4c(C)c(I)c(OC5OC(C)C(O)C(OC)C5O)c(OC)c4OC)C(C)O3)C2O)CC1OC (stereo partly drawn) [Compound 37] | successful candidates with high efficacy and good therapeutic window | 1.53 | 0.234 | 0.33 | 0.141 | – | 16.9 | 0.33
CCN(C(=O)CNC(=O)OCc1ccc(NC(=O)[C@H](C)NC(=O)[C@@H](NC(=O)CCCC(=O)O)C(C)C)cc1)C1COC(OC2C(O[C@H]3C#C/C=C\C#C[C@]4(O)CC(=O)C(NC(=O)OC)=C3/C4=C\CSSC(C)CCC(=O)NC3C(O)OC(CO)C(O)C3O)OC(C)C(NOC3CC(O)C(SC(=O)c4c(C)c(I)c(OC5OC(C)C(O)C(OC)C5O)c(OC)c4OC)C(C)O3)C2O)CC1OC (stereo partly drawn) [Compound 40] | successful candidates with high efficacy and good therapeutic window | 0.9 | 0.657 | 90 | 0.35 | – | 41.7 | 0.1
